By kcat/KM is commonly meant the second-order rate constant that governs catalysis at low substrate concentration. In general, kcat refers to the number of substrate molecules converted per active site and unit of time at saturation. Broadly, the Km is the substrate concentration at which the rate is half of its maximum.

One test deals with T1, Recombinant Human FAPα (Homo sapiens, UniProt Q12884).
T1 construct: purchased R&D Systems 3715-SE-010
T1 sequence (Q12884 1-760): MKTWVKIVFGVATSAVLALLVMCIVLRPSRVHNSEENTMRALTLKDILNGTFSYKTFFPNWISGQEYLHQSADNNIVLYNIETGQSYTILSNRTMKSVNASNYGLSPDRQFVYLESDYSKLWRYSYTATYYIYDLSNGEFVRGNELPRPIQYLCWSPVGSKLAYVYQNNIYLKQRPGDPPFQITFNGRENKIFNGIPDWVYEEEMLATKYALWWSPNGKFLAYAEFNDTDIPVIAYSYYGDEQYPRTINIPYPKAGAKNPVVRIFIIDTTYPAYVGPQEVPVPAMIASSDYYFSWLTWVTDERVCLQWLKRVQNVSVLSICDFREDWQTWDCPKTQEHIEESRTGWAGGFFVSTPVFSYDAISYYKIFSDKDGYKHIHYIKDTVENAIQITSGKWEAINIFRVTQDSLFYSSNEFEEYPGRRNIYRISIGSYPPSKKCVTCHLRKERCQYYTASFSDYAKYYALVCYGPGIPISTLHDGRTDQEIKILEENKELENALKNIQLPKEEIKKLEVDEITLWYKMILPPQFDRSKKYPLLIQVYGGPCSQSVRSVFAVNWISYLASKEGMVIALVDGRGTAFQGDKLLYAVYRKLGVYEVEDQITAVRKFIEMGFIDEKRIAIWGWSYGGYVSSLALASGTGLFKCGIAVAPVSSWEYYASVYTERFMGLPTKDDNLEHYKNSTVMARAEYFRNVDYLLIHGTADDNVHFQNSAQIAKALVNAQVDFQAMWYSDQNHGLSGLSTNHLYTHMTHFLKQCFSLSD
Kind of test: Kinetic evaluation of substrates. Type of test: biochemical. The conditions noted are these: for kcat/KM / kcat / Km: 10 nM FAPα, 37 °C, 60 min, Michaelis-Menten fit, triplicates; for kcat / Km: ± SD; for Km: 50 mM Tris, 1 M NaCl, 1 mg/mL BSA, pH 7.5, ex/em 355/460 nm. How it is done: (§1) Fluorogenic Substrate Cleavage Assay
(§2) The following proteases were used for the activity assay: Recombinant Human FAPα Protein, CF (R&D Systems, Catalog No.: 3715-SE-010), Recombinant Human Prolyl Oligopeptidase/PREP Protein, CF (R&D Systems, Catalog No.: 4308-SE-010). Recombinant Human DPP9 Protein, CF (R&D Systems, Catalog No.: 5419-SE-010). Recombinant Human DPP4 Protein (Sino Biological, Catalog No.: 10688-HNCH-10). The buffers used for the activity assay were: FAPα - 50 mM Tris, 1 M NaCl, 1 mg/mL BSA, pH 7.5, PREP- 25 mM Tris, 250 mM NaCl, 2.5 mM DTT, pH 7.5 (DTT was freshly added immediately before use), DPP9- 25 mM Tris, pH 7.5, DPP4- 25 mM Tris, pH
(§3) 7.5. The following commercial substrates were used: zGP-AMC (Bachem,Catalog No.: […]
(§4) conducted in Greiner Bio-One black microplates of 384 wells and polystyrene F-bottom (Catalog No.: 784076). All compounds were dissolved in DMSO at a concentration of 10 mM and then diluted into the respective buffer to the desired final concentration. The protease was added to the specified concentration before the fluorescence measurements. For fluorescence measurements, 2 μL of substrate was further diluted into 6 μL of buffer, followed by addition of 2 μL of enzyme in buffer. For no enzyme controls 2 μL of substrate was diluted into 8 μL of buffer.
(§5) The fluorescence was measured using a Cytation 3 plate reader (BioTek). All experiments have at least three technical replicates. All assays were conducted at 37°C for a minimum of 90 min, unless otherwise noted. Fluorescence measurements were performed at ex/em, 355/460 nm for ACC substrates. The substrates velocity was quantified by calculating the slope of the linear phase of the reaction as relative fluorescence units (RFU) per min.
(§6) Kinetic evaluation of substrates
To order to determine the kcat/KM, the previously indicated proteases were tested under their corresponding buffer conditions. Substrates were serially diluted in water, and 2 µL of each dilution was added to 6 µL of assay buffer in a 384-well plate. The plate was briefly centrifuged to ensure proper mixing and to eliminate air bubbles. Fluorescence measurements were initiated by adding 2 µL of the protease solution (prepared in activity buffer) to each well, yielding a final volume of 10 µL. Reactions were monitored at 37 °C for 60 minutes using a plate reader set to excitation/emission wavelengths of 355/460 nm. Control wells without enzyme contained 8 µL of assay buffer, instead of enzyme, and 2 µL of substrate. All measurements were performed in at least triplicate. The initial linear portion of each fluorescence progress curve was used to calculate initial reaction velocities (RFU/min). Calibration curves using free AMC were generated under the corresponding buffer and assay conditions to allow extrapolation of RFU values to µM concentrations. Michaelis-Menten kinetic parameters K M, kcat and kcat/,KM were determined using […]
GraphPad Prism version 10.4.1. […]
determined due to poor model fit. […]

The next test has as its target T2, Recombinant Human DPP9 (Homo sapiens, UniProt Q86TI2).
T2 construct: purchased R&D Systems 5419-SE-010
Briefly: Kinetic evaluation of substrates. Type of test: biochemical. The settings on record: for SI (selectivity index, coefficient of the proteases kcat/Km), FAPα vs DPP9: kcat/KM FAPα over kcat/KM DPP9. How it is done:
as §1, §2, §3, §4, §5, §6
To order to determine the kcat/KM, the previously indicated proteases were tested under their corresponding buffer conditions. Substrates were serially diluted in water, and 2 µL of each dilution was added to 6 µL of assay buffer in a 384-well plate. The plate was briefly centrifuged to ensure proper mixing and to eliminate air bubbles. Fluorescence measurements were initiated by adding 2 µL of the protease solution (prepared in activity buffer) to each well, yielding a final volume of 10 µL. Reactions were monitored at 37 °C for 60 minutes using a plate reader set to excitation/emission wavelengths of 355/460 nm. Control wells without enzyme contained 8 µL of assay buffer, instead of enzyme, and 2 µL of substrate. All measurements were performed in at least triplicate. The initial linear portion of each fluorescence progress curve was used to calculate initial reaction velocities (RFU/min). Calibration curves using free AMC were generated under the corresponding buffer and assay conditions to allow extrapolation of RFU values to µM concentrations. Michaelis-Menten kinetic parameters K M, kcat and kcat/,KM were determined using GraphPad Prism version 10.4.1. In some cases, KM, kcat or kcat/,KM values could not be reliably determined due to poor model fit. […]

The mark [1] stands for this setting: 6 nM DPP9, 37 °C, 60 min, Michaelis-Menten fit, triplicates.

*1 amine or outer side, *2 acyl side, *3 side chain or, on linkers, in order; H or OH if unused. Where a SMILES comes first, the peptide text is derived from it. Bridges are numbered along the chain shown (N, C = ends). The star is where a group is joined. X1 = NC(=O)Cc1cc(=O)oc2cc(NC(=O)[C@@H]3CCCN3C(=O)Cn3nc(C[*:1])cc3C[*:2])ccc12; X2 = NC(=O)Cc1cc(=O)oc2cc(NC(=O)[C@@H]3CCCN3C(=O)Cn3nc(C[*:2])cc3C[*:1])ccc12; AMC = Cc1cc(=O)oc2cc(N*)ccc12; Cbz = O=C(OCc1ccccc1)*

T2 sequence (Q86TI2 whole entry): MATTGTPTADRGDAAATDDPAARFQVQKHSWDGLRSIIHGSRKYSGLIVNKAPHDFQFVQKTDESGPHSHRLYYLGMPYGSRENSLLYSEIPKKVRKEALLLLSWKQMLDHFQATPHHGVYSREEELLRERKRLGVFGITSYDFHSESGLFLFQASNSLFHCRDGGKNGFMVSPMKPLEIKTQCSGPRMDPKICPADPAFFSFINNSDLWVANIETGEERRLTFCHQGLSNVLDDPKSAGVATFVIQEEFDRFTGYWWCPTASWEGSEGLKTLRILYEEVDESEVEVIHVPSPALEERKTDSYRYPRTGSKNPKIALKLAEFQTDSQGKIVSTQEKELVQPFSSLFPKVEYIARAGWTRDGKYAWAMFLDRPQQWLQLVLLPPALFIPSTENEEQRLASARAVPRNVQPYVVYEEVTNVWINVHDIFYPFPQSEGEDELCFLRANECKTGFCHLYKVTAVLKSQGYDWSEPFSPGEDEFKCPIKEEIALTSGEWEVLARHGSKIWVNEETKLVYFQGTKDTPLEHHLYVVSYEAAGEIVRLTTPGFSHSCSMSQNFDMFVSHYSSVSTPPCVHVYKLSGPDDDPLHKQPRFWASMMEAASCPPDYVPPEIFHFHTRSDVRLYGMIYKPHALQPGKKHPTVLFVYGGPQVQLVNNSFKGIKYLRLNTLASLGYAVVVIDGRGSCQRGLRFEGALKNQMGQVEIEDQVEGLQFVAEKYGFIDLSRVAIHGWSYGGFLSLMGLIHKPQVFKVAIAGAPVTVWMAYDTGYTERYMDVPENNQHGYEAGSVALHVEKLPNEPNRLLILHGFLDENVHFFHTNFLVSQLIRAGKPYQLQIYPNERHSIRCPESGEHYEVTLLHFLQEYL

Regarding `CC(C)[C@@H]1NC(=O)[C@@H](N)CSCc2cc(n(CC(=O)N3CCC[C@H]3C(=O)Nc3ccc4c(CC(N)=O)cc(=O)oc4c3)n2)CSC[C@@H](C(=O)NCC(N)=O)NC(=O)[C@H](CC(=O)O)NC(=O)[C@H](C)NC(=O)[C@H](CC(N)=O)NC(=O)[C@H](CCC(N)=O)NC(=O)[C@H](Cc2ccccc2)NC(=O)[C@H](CO)NC1=O` [FAP-33.2A6] (H-CVSFQNADCG-NH2; linker 1-9 via X1; N-terminus assumed), at Recombinant Human FAPα, the kcat/KM was found to be 28312 M⁻¹ s⁻¹ and the catalytic constant (kcat) worked out at 0.906 ± 0.050 s⁻¹. In addition, on Recombinant Human DPP9, the “SI (selectivity index, coefficient of the proteases kcat/Km), FAPα vs DPP9” value is on record as “FAPα >>>DPP9”.

With `CC(C)C[C@@H]1NC(=O)[C@H](CC(N)=O)NC(=O)[C@H](CCC(N)=O)NC(=O)[C@H](Cc2ccccc2)NC(=O)[C@H](CO)NC(=O)[C@H](C(C)C)NC(=O)[C@@H](N)CSCc2cc(nn2CC(=O)N2CCC[C@H]2C(=O)Nc2ccc3c(CC(N)=O)cc(=O)oc3c2)CSC[C@@H](C(=O)NCC(N)=O)NC(=O)[C@H](CC(=O)O)NC1=O` [FAP-33.2] (H-CVSFQNLDCG-NH2; linker 1-9 via X2; N-terminus assumed), at Recombinant Human FAPα, the specificity constant (kcat/KM) was found to be 23633 M⁻¹ s⁻¹ and the catalytic constant (kcat) is given as 0.709 ± 0.034 s⁻¹. In addition, the “SI (selectivity index, coefficient of the proteases kcat/Km), FAPα vs DPP9” value on Recombinant Human DPP9 is given as “FAPα >>>DPP9”.

Regarding `Cc1cc(=O)oc2cc(NC(=O)[C@@H]3CCCN3C(=O)CN)ccc12` [GP-AMC] (H-Gly-Pro-{AMC}), on Recombinant Human FAPα, the Michaelis-Menten constant (Km) turned out to be 103 ± 31 µM and the kcat/KM was found to be 637 M⁻¹ s⁻¹. Moreover, the “SI (selectivity index, coefficient of the proteases kcat/Km), DPP4 vs FAPα” value at Recombinant Human FAPα (kcat/KM DPP4 over kcat/KM FAPα) was 597. Also, the Km on Recombinant Human DPP9 (6 nM DPP9, 25 mM Tris, pH 7.5, 37 °C, 60 min, Michaelis-Menten fit, triplicates, ± SD) came out at 61 ± 11 µM. At Recombinant Human DPP9 (setting [1]), the kcat is listed as 0.21 s⁻¹ and the kcat/KM stood at 3455 M⁻¹ s⁻¹. Moreover, at Recombinant Human DPP9 (kcat/KM DPP4 over kcat/KM DPP9), the “SI (selectivity index, coefficient of the proteases kcat/Km), DPP4 vs DPP9” value is 110.

For `Cc1cc(=O)oc2cc(NC(=O)[C@@H]3CCCN3C(=O)CNC(=O)OCc3ccccc3)ccc12` [zGP-AMC] (Cbz-Gly-Pro-{AMC}), at Recombinant Human FAPα, the Km worked out at 145 ± 60 µM, the catalytic efficiency (kcat/KM) came out at 155793 M⁻¹ s⁻¹ and the catalytic constant (kcat) worked out at 22.59 ± 4.99 s⁻¹.
